Laboratory results taken from patent publication US9920383B2, “Active substances for increasing the stress defense in plants to abiotic stress, and methods of finding them” (Bayer Intellectual Property GMBH, priority 2005, dated 2018).

Legend:
Assay type in all cases: in vivo, maize cv. Lorenzo
maize plants [1] = experiment: Drought stress experiment with maize plants, seed dressing with active substance; details: for Relative dry matter [%]: relative to control group 2 (−S/−D)
Description: Maize seeds cv. Lorenzo were dressed with the compound 4-cyclopropylamino-carbonyl-N-(2-methoxybenzoyl)benzenesulfonamide (=VIII-3). To this end, 10 g of seeds were incubated with 20 mg of active substance dissolved in 2 ml of methylene chloride, with gentle shaking, until the solvent had evaporated (approx. 30 minutes). The seeds of the control group were only dressed with solvent. Thereafter, the treated seeds were placed into pots with compost (diameter 10 cm, in each case 10 seeds per pot), and the maize seedlings were raised for 10 days in a controlled-environment chamber under defined light, moisture and temperature conditions [white light, long day (16 hours light, 8 hours dark), 70% atmospheric humidity, 24° C.]. In each case 2×10 pots were used for the control groups and for the drought stress experiment. While the plants were raised, they were watered from below for 20 minutes every 2 days by raising the water level in a tray. 10 days after the seeds had germinated, the maize plants were exposed to the drought stress. To this end, the plants of control group 1 (without dressing with active substance) and of the test group (with dressing with active substance) were only irrigated every 7 days as described above. In the case of the plants of control group 2 (without dressing with active substance) and of the test group 2 (with dressing with active substance), the normal irrigation regime was reclaimed. After 3 weeks of drought stress conditions, the experiment was evaluated as follows. The aerial plant parts were cut off and dried overnight at 50° C. On the next day, the foliar biomass was determined in [g] (dry matter) per pot.
The data were averaged over the in each case 10 pots of the plant group. The numerical values shown in table 1 are relative values in [%] relative to the data obtained with the control group 2 (without dressing with active substance, normal irrigation regime).

maize plants [2] = experiment: Chill-stress experiment (greenhouse) with maize plants, pre-emergence treatment; details: for Number of damaged plants (chloroses): chill stress 6 h at −2° C, 20 plants per group
Excerpt: Maize seeds cv. Lorenzo were sown into 10-cm-pots into compost at a rate of 10 seeds per pot. All experimental groups consisted of in each case 4 pots. The sown seeds of test groups 1 and 2 were sprayed pre-emergence with 50 and 100 [g a.i./ha], respectively, of the compound 4-cyclopropylaminocarbonyl-N-(2-methoxybenzoyl)benzenesulfonamide (=VIII-3). The seeds of the control group remained untreated. The plants were raised under controlled conditions in a controlled-environment chamber [white light (long day: 16 h light, 8 h dark), 22° C. day-time temperature, 14° C. night-time temperature, 60% atmospheric humidity].
After germination, when the plants had attained a length of approx. 1 cm, 2 pots from each group were incubated for 6 h in a different controlled-environment chamber under chill-stress conditions at −2° C. Thereafter, these plants were returned to the others in the first controlled-environment chamber.
To evaluate the experiment quantitatively, the plants with chloroses of the leaf tips were counted. The total number of the plants per test group and cold stress treatment was 20, provided over 2 pots in each case.

[3] = system: Zm.818.1.A1_at universal stress protein; experiment: Gene expression profiling (maize genome array), drought stress; details: vs unstressed solvent-dressed control
Description: (§1) Maize seeds cv. Lorenzo were dressed as described in example 1 with the compound VIII-3 (=4-cyclopropylaminocarbonyl-N-(2-methoxybenzoyl)benzenesulfonamide) or with solvent. The plants were raised for 10 days in a controlled-environment chamber (conditions: see example 1).
(§2) Thereafter, the plants were exposed to the following stress conditions: • (1) Heat stress: 6 h at 45° C. • (2) Drought stress: 7 days without irrigation, 24° C.
(§3) The control plants of the specific experimental group were kept under the standard conditions described in example 1 (temperature, irrigation).
(§4) After the stress treatment, the leaves of the stressed plants and of the unstressed control plants were harvested, shock-frozen in liquid nitrogen and stored at −80° C. until processed. All experiments were carried out in replications of in each case 2 pots.
(§5) The labeled RNA probes for the DNA chip hybridization were prepared as described in the protocols (Expression Analysis. Technical Manual) from Affymetrix (Affymetrix Inc., 3380 Central Expressway, Santa Clara, Calif., USA). First, total RNA was isolated from in each case 500 mg of the harvested leaves. In each case 10 μg of total RNA were used for the cDNA first- and second-strand synthesis. The cDNA was amplified with T7 polymerase and simultaneously labeled with biotin-UTP. In each case 20 μg of this biotinylated […] were employed for the hybridization of the maize genome array from Affymetrix. This DNA microarray contains DNA sequences whose totality represents 13339 genes. Thereafter, the DNA microarrays were washed in the Affymetrix Fluidics Station, stained with streptavidin/phycoerythrin (Molecular Probes, P/N S-866) and scanned with the appropriate Agilent Laser Scanner (Agilent Gene Array Scanner). The fluorescence data obtained were analyzed using Affymetrix's Microarray Suite 5 software. After the quality assurance had been performed, all DNA chip analyses were stored in a database. To determine relevant expression values (induction factors, repression factors), the absolute expression values of the genes from the respective stress experiments were compared with the values of the respective control experiments (i.e. without abiotic stress and solvent-dressing only), based on the scoring function predetermined by the Affymetrix software. The resulting 4 expression values per gene were averaged by calculating the median value. These median values are shown in the results tables as induction factors. Similarity comparisons of expression profiles of various experiments and cluster analyses were carried out using the “genedata expressionist” software from Genedata (Genedata, Maulbeerstr. 46, CH-4016 Basel, Switzerland).
(§6) The induction patterns derived from table 5 and which are shown directly by the resulting expression values show characteristic inductions by the action of the compound 4-cyclopropylaminocarbonyl-N-(2-methoxybenzoyl)benzenesulfonamide (=VIII-3), the effect on the putative N-carbamyl-L-amino acid amidohydrolase [Zm.11840.1.A1_at] and on the putative serine carboxypeptidase [Zm18994.2.A1-at] being most pronounced. • b) Under dried stress conditions, i.e. the tested maize plants (dressed with 2 mg a.i. 4-cyclopropylaminocarbonyl-N-(2-methoxybenzoyl)benzenesulfonamide/g seeds) were exposed to a temperature of 24° C. for 7 hours 7 days after germination.
(§7) • Condition A: drought stress (7 days, 24° C.) • Condition B: Seeds dressed with 4-cyclopropylaminocarbonyl-N-(2-methoxybenzoyl)benzenesulfonamide (VIII-3)/NO drought stress • Condition C: Seeds dressed with 4-cyclopropylaminocarbonyl-N-(2-methoxybenzoyl)benzenesulfonamide (VIII-3)+drought stress (7 days, 24° C.).

[4] = system: Zm.13229.1.S1_at NBS-LRR type disease resistance protein O2 (fragment); experiment: as above; details: vs unstressed solvent-dressed control
Description: as §1, §2, §3, §4, §5, §6, §7

[5] = system: Zm.818.2.A1_at expressed protein; experiment: as above; details: vs unstressed solvent-dressed control
Description: as §1, §2, §3, §4, §5, §6, §7

[6] = seeds dressed with VIII-3 (2 mg a.i./g seeds), NO drought stress
[7] = seeds dressed with VIII-3 + drought stress (7 days, 24° C.)

How did the “Relative dry matter [%]” value (maize plants [1]; +S/+D: seeds dressed (20 mg per 10 g seeds), 3 weeks drought stress) turn out when `COc1ccccc1C(=O)NS(=O)(=O)c1ccc(C(=O)NC2CC2)cc1` [VIII-3, 4-cyclopropylaminocarbonyl-N-(2-methoxybenzoyl)benzenesulfonamide] was run?
Its value is 80%.

What about the “Relative dry matter [%]” value (maize plants [1]; +S/−D: seeds dressed, normal irrigation (no drought stress)) of the same compound?
The value was 100%.

What about the “average foliar biomass (dry matter) over the undressed control plant” value (maize plants [1]; under drought stress (control group 1 vs test group 1)) of the same compound?
Its value is “significantly increased”.

And the “Number of damaged plants (chloroses)” value (maize plants [2]; 50 g a.i./ha pre-emergence)?
Its value is 1.

And the “Number of damaged plants (chloroses)” value (maize plants [2]; 100 g a.i./ha pre-emergence)?
The value was 0.

What about the “occurrence of chill stress damage symptoms” value (maize plants [2]; at the higher dosage rate) of the same compound?
The value was “completely prevents”.

What about the “chloroses at the leaf tips after chill stress” value (maize plants [2]; plants treated with the active substance, 24 hours after chill stress) of the same compound?
Its value is “either absent or only very weakly pronounced”.

And the “plants showing damage symptoms” value (maize plants [2]; test groups kept exclusively under standard conditions without chill stress)?
Its value is “None”.

And the “damage symptoms which are the result of chill stress” value (maize plants [2]; treatment with the active substance (lower dosage rate))?
The value was “markedly reduce”.

What about the “induction factor Zm.818.1.A1_at, Condition B” value [3, 6] of the same compound?
The value was 1.12.

And the “induction factor Zm.818.1.A1_at, Condition C” value [3, 7]?
The value was 8.47.

And the “induction factor Zm.13229.1.S1_at, Condition B” value [4, 6]?
Its value is 1.02.

And the “induction factor Zm.13229.1.S1_at, Condition C” value [4, 7]?
Its value is 3.39.

What about the “induction factor Zm.818.2.A1_at, Condition B” value [5, 6] of the same compound?
The value was 1.10.

What about the “induction factor Zm.818.2.A1_at, Condition C” value [5, 7] of the same compound?
The value was 5.40.
